Read-outs that look alike come from different tables or passages of the source.
Key:
[1] = target: T1, Recombinant Rhinovirus 3C protease (RVP) serotype-14 (Human rhinovirus 14, UniProt P03303); assay: Inhibition of Rhinovirus Protease (fluorescence resonance energy transfer assay), serotype 14; assay type: biochemical, human rhinovirus (HRV); settings: for kinact/KI: pH 7.6, read-out: kobs/I; for kobs/I: progress curves in enzyme start experiments
T1 construct: Recombinant Rhinovirus 3C proteases from serotypes 14, 16, 2 or 89; made in house
T1 sequence (P03303 1538-1719): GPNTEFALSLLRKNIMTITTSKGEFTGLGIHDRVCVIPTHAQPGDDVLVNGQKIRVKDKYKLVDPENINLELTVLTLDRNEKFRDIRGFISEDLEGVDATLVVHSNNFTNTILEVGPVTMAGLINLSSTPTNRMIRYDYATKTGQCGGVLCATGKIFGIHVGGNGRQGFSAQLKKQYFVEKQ

[2] = target: T2, Recombinant Rhinovirus 3C protease (RVP) serotype 16 (Human rhinovirus 16, UniProt Q82122); assay: Inhibition of Rhinovirus Protease (fluorescence resonance energy transfer assay), serotype 16; assay type: biochemical, human rhinovirus (HRV); settings: RVP serotype 16, progress curves in enzyme start experiments; for kinact/KI: pH 7.6, read-out: kobs/I
T2 construct: Recombinant Rhinovirus 3C proteases from serotypes 14, 16, 2 or 89; made in house
T2 sequence (Q82122 1511-1693): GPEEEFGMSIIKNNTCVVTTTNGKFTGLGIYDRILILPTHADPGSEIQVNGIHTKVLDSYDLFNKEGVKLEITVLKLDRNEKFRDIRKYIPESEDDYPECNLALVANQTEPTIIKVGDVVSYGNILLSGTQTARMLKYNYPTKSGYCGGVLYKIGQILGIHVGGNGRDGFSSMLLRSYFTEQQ
Description: (§1) Stock solution (50 mM, in DMSO) of various compounds were prepared; dilutions were in the same solvent. Recombinant Rhinovirus 3C proteases from serotypes 14, 16, 2 or 89 were prepared by the following standard chromatographic procedures: (1) ion exchange using Q Sepharose Fast Flow from Pharmacia; (2) affinity chromatography using Affi-Gel Blue from Biorad; and (3) sizing using Sephadex G-100 from Pharmacia. Assays contained 2% DMSO, 50 mM tris pH 7.6, 1 mM EDTA, a compound at the indicated concentrations, approximately 1 μM substrate, and 50-100 nM protease. […] The kobs/I values were obtained from reactions initiated by addition of enzyme rather than substrate. RVP activity is measured in the fluorescence resonance energy transfer assay. The substrate was (N-terminal) DABCYL-([…]Gyl)-EDANS. In the uncleaved peptide, the EDANS fluorescence was quenched by the proximal DABCYL moeity. When the peptide was cleaved, the quenching was relieved, and activity was measured as an increase in fluorescence signal.
(§2) In the above table, all data is RVP serotype-14 unless otherwise noted in parentheses. All strains of human rhinovirus (HRV) were purchased from American Type Culture Collection (ATCC), except for serotype 14, which was produced from the infectious cDNA clone constructed and supplied to us by Dr. Roland Rueckert at the Institute for Molecular Virology, University of Wisconsin, Madison, Wisc. […] The data in the column designated kobs/I was measured from progress curves in enzyme start experiments.

[3] = target: T3, Recombinant Rhinovirus 3C protease (RVP) serotype 2 (Human rhinovirus 2, UniProt P04936); assay: Inhibition of Rhinovirus Protease (fluorescence resonance energy transfer assay), serotype 2; assay type: biochemical, human rhinovirus (HRV); settings: for kinact/KI: pH 7.6, progress curves in enzyme start experiments, read-out: kobs/I; for kobs/I: progress curves in enzyme start experiments
T3 construct: Recombinant Rhinovirus 3C proteases from serotypes 14, 16, 2 or 89; made in house
T3 sequence (P04936 1508-1690): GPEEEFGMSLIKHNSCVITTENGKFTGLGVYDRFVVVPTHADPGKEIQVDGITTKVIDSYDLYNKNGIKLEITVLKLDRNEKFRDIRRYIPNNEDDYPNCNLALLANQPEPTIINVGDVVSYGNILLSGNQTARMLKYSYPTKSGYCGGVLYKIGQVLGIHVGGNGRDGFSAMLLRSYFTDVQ
Description: as §1, §2

HRV-14 = assay: Antirhinoviral HI-HeLa Cell Culture Assay (Cell Protection Assay, XTT dye reduction); assay type: cell-based, human rhinovirus (HRV) serotype-14
In short: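 HI-HeLa cells infected with HRV-14 at m.o.i. 0.13 or mock-infected, then incubated with compounds for two days. Cell protection read by XTT/PMS formazan at 450/650 nm; therapeutic index = CC50/EC50.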

[4] = Cytotoxicity in mock-infected HI-HeLa cells (antirhinoviral assay, XTT); assay type: cell-based; settings: human; mock-infected HI-HeLa cells; two days; XTT; read-out: CC50
HI-HeLa cells = assay: as above; assay type: cell-based
[5] = system: Human Rhinovirus-serotype 10 (HRV-10); assay: Normal Human Bronchial Epithelial Cell Assay (MTT); assay type: cell-based; settings: normal human bronchial cells, HRV-10 at m.o.i. 10, 3-4 days at 34° C., read-out: ED50 (the source's name)
Description: Normal human bronchial cells were obtained from cadavers and cultured. The cells were plated at 2×10^4 per well in a […] plate. They were allowed to adhere and grow for 24 hours in 200 μL of serum-free bronchial/tracheal epithelial cell growth medium at 37° C. with 5% CO2. Human Rhinovirus-serotype 10 (HRV-10) was purchased from American Type Culture Collection (ATCC). To start the assay, the supernatant was removed, and HRV-10 at an m.o.i. of 10 (virus particles/cell) was added to each well along with the appropriate amount of compound of formula I or II. The plate was then incubated at 34° C. After 3 hours the supernatant was removed, and 200 μL of media was added along with the same concentration of compound as used in the beginning of the assay. The plates were incubated for 3-4 days at 34° C. To determine the amount of cell growth, an MTT assay (0.5 mgs/mL), as described in Mosmann, T. J. J. Immunol. Methods 1983, 65, 55-63, which is incorporated herein by reference, was performed on the cells, and the plate was read at an optical density of 540 nm. The compounds were tested against control compound Pirodavir, obtained from Janssen Pharmaceuticals. The EC50 was measured as described above for the HI-HeLa Cell Culture Assay.

[6] = Rhinovirus B, HRV14, 48 h, HI-HeLa cells infected with HRV-14, m.o.i. 0.13, two days, XTT, read-out: EC50
[7] = HI-HeLa cells infected with HRV-14, m.o.i. 0.13, two days, XTT, read-out: EC50

Row | Compound | Ki [1] | kinact/KI [1] | kinact/KI [2] | kinact/KI [3] | EC50 (HRV-14; [6]) | CC50 at 2 days [4] | Ki ([1]; RVP serotype-14, 10 minute preincubation, substrate start, read-out: INHIB (Ki)) | kobs/I ([1]; RVP serotype-14) | EC50 (HRV-14; [7]) | CC50 (HI-HeLa cells) | EC50 [5] | EC50 (HRV-14; Rhinovirus B, HRV14, 48 h) | INHIB (percent inhibition) ([1]; RVP serotype-14, 0.5 μM compound, 10 minute preincubation with 50 nM RVP) | kobs/I [2] | kobs/I [3]
1 | CCOC(=O)/C=C/[C@H](CCC(N)=O)NC(=O)[C@H](Cc1ccccc1)NC(=O)[C@H](CCC(=O)O)NC(=O)OCc1ccccc1 [Compound 154] | 1100 nM | 78900 M⁻¹ s⁻¹ | 13900 M⁻¹ s⁻¹ | 5400 M⁻¹ s⁻¹ | 5500 nM | > 320 µM | – | – | – | – | – | – | – | – | –
2 | CCOC(=O)/C=C/[C@H](CCC(N)=O)NC(=O)[C@H](Cc1ccccc1)NC(=O)[C@H](CC(=O)O)NC(=O)OCc1ccccc1 [Compound 159] | 500 nM | 35000 M⁻¹ s⁻¹ | 6500 M⁻¹ s⁻¹ | 2500 M⁻¹ s⁻¹ | 2400 nM | > 320 µM | – | – | – | – | – | – | – | – | –
3 | CCOC(=O)/C=C/[C@H](CCC(N)=O)NC(=O)[C@H](Cc1ccccc1)NC(=O)[C@H](CSc1ccccc1)NC(=O)OCc1ccccc1 [Compound 153] | 1400 nM | 141000 M⁻¹ s⁻¹ | 30600 M⁻¹ s⁻¹ | 13400 M⁻¹ s⁻¹ | 120 nM | > 320 µM | – | – | – | – | – | – | – | – | –
4 | Ethyl-3-[CBZ-L-Leu-L-Phe-L-[N-(2-pyrrolidinone)]-Ala]-E-Propenoate [Compound 5] | – | – | – | – | – | – | 7100 nM | 221 M⁻¹ s⁻¹ | 1600 nM | 251 µM | 1 nM | – | – | – | –
5 | CCOC(=O)/C=C/[C@H](CCC(N)=O)NC(=O)[C@H](Cc1ccccc1)NC(=O)[C@H](Cc1ccccc1)NC(=O)OCc1ccccc1 [Compound 157] | 6000 nM | 162000 M⁻¹ s⁻¹ | 30800 M⁻¹ s⁻¹ | 9700 M⁻¹ s⁻¹ | 560 nM | > 320 µM | – | – | – | – | – | – | – | – | –
6 | CCOC(=O)/C=C/[C@H](CCC(N)=O)NC(=O)[C@H](Cc1ccccc1)NC(=O)[C@H](CC(C)C)NC(=O)SCc1ccccc1 [Compound 106] | 2000 nM | 280000 M⁻¹ s⁻¹ | 75000 M⁻¹ s⁻¹ | 28400 M⁻¹ s⁻¹ | 270 nM | > 320 µM | – | – | – | – | – | – | – | – | –
7 | CCOC(=O)C=CC(CCC(N)=O)NC(=O)C(Cc1ccc(C)cc1)NC(=O)C(CC(C)C)NC(=O)OCc1ccccc1 (stereo not drawn) [Compound 155] | – | 59400 M⁻¹ s⁻¹ | 5250 M⁻¹ s⁻¹ | 1390 M⁻¹ s⁻¹ | – | > 320 µM | – | – | – | – | – | 180 nM | – | – | –
8 | CCOC(=O)C=CC(CCC(N)=O)NC(=O)C(Cc1ccccc1)NC(=O)C(CCc1ccccc1)NC(=O)OCc1ccccc1 (stereo not drawn) [Compound 148] | – | 57000 M⁻¹ s⁻¹ | 14800 M⁻¹ s⁻¹ | 8300 M⁻¹ s⁻¹ | 250 nM | > 320 µM | – | – | – | – | – | – | – | – | –
9 | CCOC(=O)/C=C/[C@H](CNC(C)=O)NC(=O)[C@H](Cc1ccccc1)NC(=O)[C@H](CC(C)C)NC(=O)OCc1ccccc1 [Compound 4, Ethyl-3-[CBZ-L-Leu-L-Phe-L-(N-Ac-amino)-Ala]-E-Propenoate] | – | – | – | – | – | – | – | 790 M⁻¹ s⁻¹ | 2200 nM | > 320 µM | 150 nM | – | 49(0.5) percent | – | –
10 | CCOC(=O)/C=C/[C@H](CCC(N)=O)NC(=O)[C@H](Cc1ccccc1)NC(=O)[C@H](C[S+]([O-])Cc1ccccc1)NC(=O)OCc1ccccc1 (stereo partly drawn) [Compound 166] | – | – | – | – | – | – | – | 40,900 M-1 sec-1 | 5600 nM | > 100 µM | – | – | – | 7,700 M-1 sec-1 | 3,500 M-1 sec-1
11 | CC(C)C[C@H](NC(=O)OCc1ccccc1)C(=O)N[C@@H](Cc1ccccc1)C(=O)N[C@H](/C=C/C(=O)N1CCOC1=O)CCC(N)=O [Compound 62] | – | – | – | – | – | – | – | 600,000 M-1 sec-1 | 1600 nM | > 100 µM | – | – | – | 300,000 M-1 sec-1 | 600,000 M-1 sec-1
12 | CCOC(=O)/C=C/[C@H](CCC(N)=O)NC(=O)[C@H](Cc1ccccc1)NC(=O)[C@H](CO)NC(=O)OCc1ccccc1 [Compound 149] | – | – | – | – | – | – | – | 39,940 M-1 sec-1 | 1780 nM | > 320 µM | – | – | – | 7,700 M-1 sec-1 | 2,840 M-1 sec-1
13 | CCOC(=O)/C=C/[C@H](CCC(N)=O)NC(=O)[C@H](Cc1ccccc1)NC(=O)[C@H](CC(C)C)NC(=O)SCC [Compound 120] | 6000 nM | 91300 M⁻¹ s⁻¹ | 20000 M⁻¹ s⁻¹ | 8900 M⁻¹ s⁻¹ | 460 nM | > 320 µM | – | – | – | – | – | – | – | – | –
14 | CCOC(=O)/C=C/[C@H](CCC(N)=O)NC(=O)[C@H](Cc1ccc(CCO)cc1)NC(=O)[C@H](CC(C)C)NC(=O)OCc1ccccc1 [Compound 139] | – | – | – | – | – | – | – | 43,140 M-1 sec-1 | 3500 nM | > 320 µM | – | – | – | 1,259 M-1 sec-1 | 691 M⁻¹ s⁻¹
15 | CCOC(=O)/C=C/[C@H](CCC(N)=O)NC(=O)[C@H](Cc1ccc(OC)cc1)NC(=O)[C@H](CC(C)C)NC(=O)OCc1ccccc1 [Compound 103] | – | – | – | – | – | – | – | 29,200 M-1 sec-1 | 1700 nM | > 320 µM | – | – | – | 3,354 M-1 sec-1 | 1,106 M-1 sec-1
16 | CCC[C@H](NC(=O)[C@H](CC(C)C)NC(=O)OCc1ccccc1)C(=O)N[C@H](/C=C/C(=O)OCC)CCC(N)=O [Compound 137] | – | – | – | – | – | – | – | 2,344 M-1 sec-1 | 224000 nM | > 320 µM | – | – | – | 1,157 M-1 sec-1 | 643 M⁻¹ s⁻¹
17 | CCOC(=O)/C=C/[C@H](CCC(N)=O)NC(=O)[C@H](Cc1ccccc1)NC(=O)[C@H](CSc1ccccc1)NC(=O)SC1CCCC1 [Compound 173, Ethyl-3-[Cyclopentylthiocarbonyl-L-(S-Ph-Cys)-L-Phe-L-Gln]-E-Propenoate] | – | – | – | – | – | – | – | 1,000,000 M-1 sec-1 | 80 nM | > 100 µM | – | – | – | 185,000 M-1 sec-1 | 113,000 M-1 sec-1
18 | CC(C)C[C@H](NC(=O)OCc1ccccc1)C(=O)N[C@@H](Cc1ccccc1)C(=O)N[C@H](/C=C/C(=O)N1CCCC1=O)CCC(N)=O [Compound 61] | – | – | – | – | – | – | – | 125,940 M-1 sec-1 | 890 nM | 56 µM | – | – | – | 25,000 M-1 sec-1 | 14,000 M-1 sec-1

From patent US6362166B1, “Antipicornaviral compounds and methods for their use and preparation” (Agouron Pharmaceuticals, Inc., priority 1996, dated 2002)
